These results are taken from ChEMBL document CHEMBL1135287, “Anisylazoformylarginine: a superior assay substrate for carboxypeptidase B type enzymes” (Bioorg Med Chem Lett, 2002).

The structures appear in SMILES notation.

The species named for test [1] is Sus scrofa. Kind of test: Specificity constant kcat/Km was obtained at pH of 7.9, 25 degree C by the porcine carboxypeptidase B.
Test [2] is filed under the species Sus scrofa. Put plainly: Kinetic constant in the presence of porcine carboxypeptidase B.

Regarding `COc1ccc(/N=N/C(=O)N[C@@H](CCCN=C(N)N)C(=O)O)cc1`, the k cat/Km in test [1] came out at 1e+06 M⁻¹ s⁻¹. In test [2], the Km was 44 µM and the k cat was found to be 44 s⁻¹.

Usually Km stands for the substrate concentration at which the rate is half of its maximum.
